Tests used:
RAW264.7 macrophages = assay: Cytokine mRNA levels by RT-qPCR in RAW264.7 macrophages stimulated with LPS and IFNγ; format: cell-based, murine; details: 50 µM, 2 h, vs control
Experimental: RAW264.7 murine macrophage cells (ATCC, Manassas, Virginia, USA) were cultured between passage 12 and 25 in Dulbecco’s modified Eagle’s medium supplemented with 10% heat-inactivated fetal calf serum and 1% L-glutamine (ThermoFisher Scientific). The macrophages were seeded at 35,000 cells per well in 12-well plates (Falcon) for ELISA experiments or 110,000 cells per well in 6-well plates (Falcon) for cell lysates, upon reaching 80–90% confluence after 3-day culture. Cells were maintained at 37 °C with 5% CO2/air atmosphere and the media were changed every other day.
(§1) Cells were exposed to 3-oxo-C12:2-HSL (synthesized as previously described[17]) or DMSO 0.1% as a control for different durations depending on the experiment, in the presence of the lactonase inhibitor 2-hydroxyquinoline (100 µM, Sigma-Aldrich), in order to limit the hydrolysis of the AHL lactone ring, as described previously[17],[18].
(§2) In RAW264.7 cells, inflammation was triggered with LPS (10 ng/mL, Sigma) and IFNγ (10 U/mL, R&Dsystems) for 2 h or 6 h, depending on the experiments. PBMC were exposed to LPS (10 ng/mL) and AHL for 24 h. For TAS2R38 inhibition experiments, cells were exposed to TAS2R38 allosteric inhibitor probenecid (1 mM, Sigma) for one hour before adding AHLs and the inflammatory cocktail, without changing the media.
Total RNA was extracted from RAW264.7 cells using TRIzol (Invitrogen) according to the manufacturer's instructions. Reverse Transcription (RT) was performed with 1 μg RNA using LunaScript® RT SuperMix Kit (NewEngland Biolabs). Semi-quantitative real-time PCR was performed with the Mx3000P Stratagene system using SYBR Green (Applied Biosystems) according to the manufacturer's procedures. Cyclophilin was used as the reference gene. After amplification, Ct were determined.

RAW264.7 cells and PBMC = assay: Cytotoxicity by lactate dehydrogenase release; format: cell-based; details: doses of AHL used in all experiments
Experimental: Release of lactate dehydrogenase into the medium was measured to assess cellular toxicity. LDH concentration was measured using the Cytotoxicity Detection Kit (Roche, Boulogne-Billancourt, France) according to the manufacturer’s instructions. The media were centrifuged 5 min at 250g to remove any cells. 50 µL of reaction mixture was added to 50 µL of media supernatant in 96-well plates. After 10 min at room temperature, 25 µL of stop solution was added. Absorbance at 490 nm was determined with a microplate spectrometer (FLUOstar Omega; BMG Labtech). Results are expressed as absorbance arbitrary units.

PBMC = assay: TNFα secretion by ELISA in PBMC stimulated with LPS; format: cell-based, human; details: LPS 10 ng/mL, 24 h, dose-dependent between 25 to 100 µM
Experimental: Peripheral Blood Mononuclear Cells (PBMC) were extracted from whole blood of anonymous donors and collected by Etablissement Français du Sang of Paris, France.
PBMC were cultured in Roswell Park Memorial Institute medium (ThermoFisher Scientific) with 10% heat-inactivated fetal calf serum, 1% L-glutamine, 1% non-essential amino acids, 1% sodium pyruvate, penicillin (100 IU/mL), and streptomycin (100 µg/mL). Peripheral blood was harvested in EDTA tubes, blood was diluted with PBS 1:1, layered over Histopaque-1077® (Sigma) and centrifuged for 20 min at 400g at room temperature. Extracted PBMC were washed twice with sterile PBS then centrifuged at 300g for 5 min and resuspended in complete medium. For experiments, cells were seeded at 300,000 cells per well in 200 µL of medium in 96-well plates (ThermoFisher Scientific).
as §1, with “previously[17],[18]. […]” for “previously[17],[18].”
At the end of cell treatment, the medium was centrifuged at 300g for 5 min at 4 °C. […] Absorbance was measured by a spectrometer (FLUOstar Omega; BMG Labtech) at 450 nm and the absorbance at 540 nm was subtracted.

Caco-2/TC7 = test system: Caco-2/TC7; parameters: method as in PMID 30157234; details: Caco-2/TC7 stimulated by IL-1β ref 17; cited from earlier work
JAK2 = JAK2 phosphorylation by Wes capillary electrophoresis in activated RAW264.7 macrophages; format: cell-based, murine; details: 50 µM, 2 h, LPS and IFNγ stimulated
Experimental: as §2
RAW264.7 cells were scraped in lysis buffer (20 mM Tris- HCl, pH 7.4, 5 mM EDTA, 0.15 M NaCl, 1% Triton X-100, 0.5% sodium deoxycholate) supplemented with protease inhibitor cocktail (Complete Mini; Roche, Boulogne-Billancourt, France) and phosphatase inhibitor cocktail (PhosSTOP, Sigma-Aldrich). Protein concentrations were determined using the BC Assay (Uptima/Interchim). Wes™ analyses (capillary electrophoresis system; ProteinSimple, San Jose, CA) were performed according to the manufacturer’s recommendations, and adequate protein concentrations and antibody dilutions were determined in preliminary assays to allow optimal quantitative conditions. […] Data were analysed using Compass for SW3.1 software (ProteinSimple).

3-oxo-C12:2-HSL
IL-10 expression (Il10 mRNA) (RAW264.7 macrophages): strongly increased | Il1b mRNA level (RAW264.7 macrophages): reduced | Tnf mRNA level (RAW264.7 macrophages): reduced | cytotoxicity, lactate dehydrogenase release compared to the control (RAW264.7 cells and PBMC): no significant difference | TNFα secretion (PBMC): strongly decreased | IL-8 production (Caco-2/TC7): decreased | phosphorylation level of JAK2 vs activated cells without AHL (JAK2): not significantly altered

Reference: publication PMC9177545, “3-oxo-C12:2-HSL, quorum sensing molecule from human intestinal microbiota, inhibits pro-inflammatory pathways in immune cells via bitter taste receptors” (Scientific Reports, 2022)
